Measurements as given in PubChem BioAssay AID330 (DTP/NCI, 2004).
Where “and” joins values, the source holds several entries; their conditions need not be identical. Identical values can stand only once. Inconclusive results and toxic doses are left out.

System: P388 leukemia ip, CD2F1 mice, survival T/C
Experiment: NCI In Vivo Anticancer Drug Screen. Data for tumor model P388 Leukemia (intraperitoneal) in CD2F1 (CDF1) mice
Settings: endpoint: median survival time, higher = longer survival
Outline: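 Mice carrying the transplanted tumor received test compound or vehicle. Survival was recorded in each group, and the value is the treated-group measurement divided by that of the vehicle-treated control group.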

[1] = dose: 50.0 mg/kg/injection, schedule: Q01DX005 (ip), vehicle: Klucel (hydroxypropylcellulose) (HPC)
[2] = dose: 100.0 mg/kg/injection, schedule: Q01DX005 (ip), vehicle: Klucel (hydroxypropylcellulose) (HPC)
[3] = dose: 50.0 mg/kg/injection, schedule: Q01DX005 (ip), vehicle: saline with Tween-80
[4] = dose: 100.0 mg/kg/injection, schedule: Q01DX005 (ip), vehicle: saline with Tween-80
[5] = dose: 50.0 mg/kg/injection, schedule: Q01DX009 (ip), vehicle: saline with Tween-80
[6] = dose: 100.0 mg/kg/injection, schedule: Q01DX009 (ip), vehicle: saline with Tween-80
[7] = dose: 200.0 mg/kg/injection, schedule: Q01DX009 (ip), vehicle: saline with Tween-80
[8] = dose: 60.0 mg/kg/injection, schedule: Q01DX005 (ip), vehicle: saline
[9] = dose: 120.0 mg/kg/injection, schedule: Q01DX005 (ip), vehicle: saline
[10] = dose: 25.0 mg/kg/injection, schedule: Q01DX001 (ip), vehicle: Klucel (hydroxypropylcellulose) (HPC)

For `O=C(CBr)C1(Br)CCN(Cc2ccccc2)CC1`, the T/C (dose: 3.13 mg/kg/injection, schedule: Q01DX009 (ip), vehicle: Klucel (hydroxypropylcellulose) (HPC)) was 109 % of control, the T/C (dose: 6.25 mg/kg/injection, schedule: Q01DX009 (ip), vehicle: Klucel (hydroxypropylcellulose) (HPC)) was 115 % of control and the T/C (dose: 12.5 mg/kg/injection, schedule: Q01DX009 (ip), vehicle: Klucel (hydroxypropylcellulose) (HPC)) was 109 % of control.

For `COC(=O)C12OCC34C(CC5C(C)C6=CC(=O)OC6=CC5(C)C3C(O)C1O)OC(=O)C(OC(C)=O)C24` (stereo not drawn), the T/C (dose: 18.37 mg/kg/injection, schedule: Q01DX005 (ip), vehicle: Klucel (hydroxypropylcellulose) (HPC)) was 106 % of control and the T/C (dose: 36.75 mg/kg/injection, schedule: Q01DX005 (ip), vehicle: Klucel (hydroxypropylcellulose) (HPC)) was 115 % of control.

In the case of `O=C1NC(O)c2cc(O)ccc2O1` (stereo not drawn), the T/C [1] is reported as 100 % of control, the T/C [2] is reported as 100 % of control and the T/C (dose: 200.0 mg/kg/injection, schedule: Q01DX005 (ip), vehicle: Klucel (hydroxypropylcellulose) (HPC)) is reported as 111 % of control.

In the case of `C=CCNC(=O)SCC`, the T/C [3] is reported as 107 % of control and the T/C [4] is reported as 116 % of control.

With `Oc1ccc(C(c2ccc(O)cc2)C(c2ccc(O)cc2)c2ccc(O)cc2)cc1` the T/C [5] was 107 % of control, the T/C [6] was 100 % of control and the T/C [7] was 113 % of control.

For `COCCC1CN(C(C)C)C(=O)C1(c1ccccc1)c1ccccc1` (stereo not drawn), the T/C (dose: 50.0 mg/kg/injection, schedule: Q01DX009 (ip), vehicle: Klucel (hydroxypropylcellulose) (HPC)) was 106 % of control, the T/C (dose: 100.0 mg/kg/injection, schedule: Q01DX009 (ip), vehicle: Klucel (hydroxypropylcellulose) (HPC)) was 92 % of control and the T/C (dose: 200.0 mg/kg/injection, schedule: Q01DX009 (ip), vehicle: Klucel (hydroxypropylcellulose) (HPC)) was 108 % of control.

In the case of `COc1cc2c(cc1OC)C13CCN4CC5=CCOC(CC(=O)O)C(C5CC41)C3N2` (stereo not drawn), the T/C (dose: 15.0 mg/kg/injection, schedule: Q01DX005 (ip), vehicle: saline) is reported as 100 % of control, the T/C (dose: 30.0 mg/kg/injection, schedule: Q01DX005 (ip), vehicle: saline) is reported as 96 % of control and the T/C (dose: 60.0 mg/kg/injection, schedule: Q01DX005 (ip), vehicle: saline with Tween-80) is reported as 99 % of control. For the same molecule, the T/C [8] was 94 % of control and 93 % of control and the T/C [9] was 96 % of control.

With `CCN(CC)C1C(Br)c2ccccc2C(OC)N1C#N` (stereo not drawn) the T/C (dose: 50.0 mg/kg/injection, schedule: Q01DX005 (ip), vehicle: distilled water + Tween-80 + alcohol) was 103 % of control and the T/C (dose: 100.0 mg/kg/injection, schedule: Q01DX005 (ip), vehicle: distilled water + Tween-80 + alcohol) was 107 % of control.

In the case of `CCCCCCCCSC1=CC(=O)C(OC)=C(OC)C1=O`, the T/C (dose: 4.0 mg/kg/injection, schedule: Q01DX009 (ip), vehicle: Klucel (hydroxypropylcellulose) (HPC)) is reported as 92 % of control and the T/C (dose: 8.0 mg/kg/injection, schedule: Q01DX009 (ip), vehicle: Klucel (hydroxypropylcellulose) (HPC)) is reported as 95 % of control.

`OCC1OC2OCCOC2OC1CO` (stereo not drawn) was tested, and the T/C (dose: 100.0 mg/kg/injection, schedule: Q01DX001 (ip), vehicle: saline) was 102 % of control, the T/C (dose: 200.0 mg/kg/injection, schedule: Q01DX001 (ip), vehicle: saline) was 96 % of control and the T/C (dose: 400.0 mg/kg/injection, schedule: Q01DX001 (ip), vehicle: saline) was 102 % of control.

For `COc1ccc(OC)c(/C=C(/C)[N+](=O)[O-])c1`, the T/C (dose: 44.0 mg/kg/injection, schedule: Q04DX003 (ip), vehicle: saline with Tween-80) was 119 % of control, the T/C (dose: 66.0 mg/kg/injection, schedule: Q04DX003 (ip), vehicle: saline with Tween-80) was 117 % of control and the T/C (dose: 100.0 mg/kg/injection, schedule: Q04DX003 (ip), vehicle: saline with Tween-80) was 123 % of control. The T/C (dose: 150.0 mg/kg/injection, schedule: Q04DX003 (ip), vehicle: saline with Tween-80) was 124 % of control.

`CC1CCCCC12C(C#N)(C#N)C2(C#N)C#N` (stereo not drawn) was tested, and the T/C (dose: 12.5 mg/kg/injection, schedule: Q04DX003 (ip), vehicle: Klucel (hydroxypropylcellulose) (HPC)) was 101 % of control and the T/C (dose: 25.0 mg/kg/injection, schedule: Q04DX003 (ip), vehicle: Klucel (hydroxypropylcellulose) (HPC)) was 102 % of control.

`NC(N)=N/N=C1/C=C2C/C(=N\N=C(N)N)C=C2C1` was tested, and the T/C [1] was 106 % of control and the T/C [2] was 104 % of control.

With `Clc1ncccc1SSc1cccnc1Cl` the T/C [5] was 104 % of control, the T/C [6] was 100 % of control and the T/C [7] was 104 % of control.

For `NC(=O)C1(Br)C=[N+](Cc2ccccc2)CCC1` (stereo not drawn), the T/C [8] was 103 % of control and the T/C [9] was 95 % of control.

For `COC1OC(CNCCO)C2OC(C)(C)OC12` (stereo not drawn), the T/C (dose: 50.0 mg/kg/injection, schedule: Q01DX005 (ip), vehicle: saline + alcohol) was 100 % of control, the T/C (dose: 100.0 mg/kg/injection, schedule: Q01DX005 (ip), vehicle: saline + alcohol) was 100 % of control and the T/C (dose: 200.0 mg/kg/injection, schedule: Q01DX005 (ip), vehicle: saline + alcohol) was 100 % of control.

For `NC(=O)C1CCCN1C(=O)C1CCCN(Cc2cc(CN3CCCC(C(=O)N4CCCC4C(N)=O)C3)cc(CN3CCCC(C(=O)N4CCCC4C(N)=O)C3)c2)C1` (stereo not drawn), the T/C [8] was 104 % of control, the T/C [9] was 98 % of control and the T/C (dose: 240.0 mg/kg/injection, schedule: Q01DX005 (ip), vehicle: saline) was 95 % of control.

`O=[As]O` was tested, and the T/C (dose: 0.5 mg/kg/injection, schedule: Q01DX010 (ip), vehicle: saline with Tween-80) was 100 % of control, the T/C (dose: 1.0 mg/kg/injection, schedule: Q01DX010 (ip), vehicle: saline with Tween-80) was 109 % of control and the T/C (dose: 2.0 mg/kg/injection, schedule: Q01DX010 (ip), vehicle: saline with Tween-80) was 109 % of control.

For `CCN(SSN(CC)S(=O)(=O)c1ccc(C)cc1)S(=O)(=O)c1ccc(C)cc1`, the T/C [3] was 106 % of control, the T/C [4] was 107 % of control and the T/C (dose: 200.0 mg/kg/injection, schedule: Q01DX005 (ip), vehicle: saline with Tween-80) was 110 % of control.

`ClC(Cl)Oc1ccccc1` was tested, and the T/C (dose: 10.0 mg/kg/injection, schedule: Q01DX009 (ip), vehicle: saline with Tween-80) was 97 % of control, the T/C (dose: 20.0 mg/kg/injection, schedule: Q01DX009 (ip), vehicle: saline with Tween-80) was 106 % of control and the T/C (dose: 40.0 mg/kg/injection, schedule: Q01DX009 (ip), vehicle: saline with Tween-80) was 103 % of control.

`COc1ccc(C(=O)C(CN(C)C)CN(C)C)cc1OC` was tested, and the T/C (dose: 6.25 mg/kg/injection, schedule: Q01DX005 (ip), vehicle: saline) was 113 % of control, the T/C (dose: 12.5 mg/kg/injection, schedule: Q01DX005 (ip), vehicle: saline) was 117 % of control and 124 % of control and the T/C (dose: 25.0 mg/kg/injection, schedule: Q01DX005 (ip), vehicle: saline) was 117 % of control and 121 % of control. For the same molecule, the T/C (dose: 50.0 mg/kg/injection, schedule: Q01DX005 (ip), vehicle: saline) was 112 % of control.

With `COc1ccc(/C=C/C(=N/NC(=O)c2ccccc2)C(C)CN(C)C)cc1` (stereo not drawn) the T/C (dose: 60.0 mg/kg/injection, schedule: Q01DX005 (ip), vehicle: Klucel (hydroxypropylcellulose) (HPC)) was 104 % of control and the T/C (dose: 120.0 mg/kg/injection, schedule: Q01DX005 (ip), vehicle: Klucel (hydroxypropylcellulose) (HPC)) was 111 % of control.

In the case of `O=C1C(c2ccccc2)C2NC(C1c1ccccc1)C([N+](=O)[O-])C=C2[N+](=O)[O-]` (stereo not drawn), the T/C [10] is reported as 94 % of control and the T/C (dose: 50.0 mg/kg/injection, schedule: Q01DX001 (ip), vehicle: Klucel (hydroxypropylcellulose) (HPC)) is reported as 90 % of control.

`C[N+]1(C)CCc2c([nH]c3ccccc23)C1` was tested, and the T/C (dose: 100.0 mg/kg/injection, schedule: Q01DX001 (ip), vehicle: suspension in saline) was 95 % of control and the T/C (dose: 200.0 mg/kg/injection, schedule: Q01DX001 (ip), vehicle: suspension in saline) was 107 % of control.

In the case of `Cc1cc(Cl)cnc1N`, the T/C (dose: 50.0 mg/kg/injection, schedule: Q01DX009 (ip), vehicle: saline) is reported as 99 % of control, the T/C (dose: 100.0 mg/kg/injection, schedule: Q01DX009 (ip), vehicle: saline) is reported as 97 % of control and the T/C (dose: 200.0 mg/kg/injection, schedule: Q01DX009 (ip), vehicle: saline) is reported as 92 % of control.

For `C[C@H](CCC(=O)O)[C@H]1CC[C@H]2[C@@H]3[C@H](O)C[C@@H]4C[C@H](O)CC[C@]4(C)[C@H]3C[C@H](O)[C@]12C` (tested in a mixture with another compound), the T/C (dose: 75.0 mg/kg/injection, schedule: Q01DX009 (ip), vehicle: saline sonified) was 104 % of control and the T/C (dose: 300.0 mg/kg/injection, schedule: Q01DX009 (ip), vehicle: saline sonified) was 163 % of control.

With `O=NN(CCCl)C(=O)Oc1cc(Cl)c(Cl)cc1Cl` the T/C [10] was 116 % of control, the T/C [1] was 86 % of control and the T/C (dose: 75.0 mg/kg/injection, schedule: Q01DX001 (ip), vehicle: Klucel (hydroxypropylcellulose) (HPC)) was 154 % of control and 250 % of control. For the same molecule, the T/C (dose: 100.0 mg/kg/injection, schedule: Q01DX001 (ip), vehicle: Klucel (hydroxypropylcellulose) (HPC)) was 258 % of control.

In the case of `CC(=O)c1ccc2c(c1)[nH]c1ccccc12`, the T/C [6] is reported as 86 % of control, the T/C [7] is reported as 90 % of control and the T/C (dose: 400.0 mg/kg/injection, schedule: Q01DX009 (ip), vehicle: saline with Tween-80) is reported as 90 % of control.
